Data on 14 compounds can be found in patent US12588678B2, “Oxazoline compound, synthesis method therefor and application thereof” (NANKAI UNIVERSITY, priority 2019, dated 2026).

For assay [1], the system named is Tetranychus cinnabarinus mite eggs. In words: Activity against mite eggs, dipping method on bean seedling leaves. The class given is in vivo. Particulars: for mortality at 0.001 µg/mL / mortality at 0.01 µg/mL / mortality at 0.1 µg/mL / mortality at 0.5 µg/mL / mortality at 1 µg/mL / mortality at 10 µg/mL / mortality at 100 µg/mL / mortality at 200 µg/mL: Tetranychus cinnabarinus, 96 h, checked after 4 days; for mortality at 0.001 µg/mL: read-out: mortality of mite eggs (%), 0.001 mg/L; for mortality at 0.01 µg/mL: read-out: mortality of mite eggs (%), 0.01 mg/L; for mortality at 0.1 µg/mL: read-out: mortality of mite eggs (%), 0.1 mg/L; for mortality at 0.5 µg/mL: read-out: mortality of mite eggs (%), 0.5 mg/L; for mortality at 1 µg/mL: read-out: mortality of mite eggs (%), 1 mg/L; for mortality at 10 µg/mL: read-out: mortality of mite eggs (%), 10 mg/L; for mortality at 100 µg/mL: read-out: mortality of mite eggs (%), 100 mg/L; for mortality at 200 µg/mL: read-out: mortality of mite eggs (%), 200 mg/L. The text has this: (§1) The assay examples are used to illustrate the acaricidal activity against Tetranychus cinnabarinus (mortality of mite larvae and mortality of mite eggs) of the compounds having the structure represented by formula (I), and the results are shown in tables 1 to 9, where mortality of mite larvae % =(number of dead mite larvae applied/total number of mite larvae applied)×100, and mortality of mite eggs %= (number of dead mite eggs applied/total number of mite eggs applied)×100.
Tetranychus cinnabarinus bred indoors on bean seedlings was used as a test subject by the dipping method. Move female adult mites onto the newly grown complete bean seedling leaves with two leaves, cut off the bean seedlings, place the bean seedlings in a greenhouse with illumination at 25° C. for laying eggs for 24 hours, then remove adult mites and keep mite eggs. After continuously culturing in the greenhouse for one day, completely soak the bean seedling leaves containing the acarid eggs into the prepared sample solution to be tested for 5-6 seconds by using tweezers, slightly throw off residual liquid, put the bean seedling leaves back to the culture cup, continuously culture for 4 days and then check the result. One of the plants was immersed in a solution containing no sample to be tested and the remaining additives were identical to the sample solution as a blank control. Each compound was replicated three times.

Assay [2] relates to Tetranychus cinnabarinus mite larvae. In words: Larvicidal activity test, dipping method on bean seedling leaves. In kind it is in vivo. The conditions noted are these: for acaricidal activity compared with etoxazole: Tetranychus cinnabarinus eggs and larvae, etoxazole as reference; for mortality at 0.001 µg/mL / mortality at 0.01 µg/mL / mortality at 0.1 µg/mL / mortality at 0.5 µg/mL / mortality at 1 µg/mL / mortality at 10 µg/mL / mortality at 100 µg/mL / mortality at 200 µg/mL: Tetranychus cinnabarinus, 96 h, checked after 4 days; for mortality at 0.001 µg/mL: read-out: mortality of mite larvae (%), 0.001 mg/L; for mortality at 0.01 µg/mL: read-out: mortality of mite larvae (%), 0.01 mg/L; for mortality at 0.1 µg/mL: read-out: mortality of mite larvae (%), 0.1 mg/L; for mortality at 0.5 µg/mL: read-out: mortality of mite larvae (%), 0.5 mg/L; for mortality at 1 µg/mL: read-out: mortality of mite larvae (%), 1 mg/L; for mortality at 10 µg/mL: read-out: mortality of mite larvae (%), 10 mg/L; for mortality at 100 µg/mL: read-out: mortality of mite larvae (%), 100 mg/L; for mortality at 200 µg/mL: read-out: mortality of mite larvae (%), 200 mg/L.
Text: as §1
Tetranychus cinnabarinus bred indoors on bean seedlings was used as a test subject by the dipping method. Move adult mites onto the newly grown complete bean seedling leaves with two leaves, cut off the bean seedlings, place the bean seedlings in a greenhouse with illumination at 25° C. for laying eggs for 24 hours, then remove adult mites and keep mite eggs. And continuously culture in the greenhouse for 5 days until mite eggs hatch into mite larvae (ensuring that the number of the mites on each tested leaf is not less than 60).
Completely immerse the bean seedling leaves containing the mite larvae into the sample solution to be detected with Tween at the prepared concentration for 5-6 seconds by using tweezers, slightly throw off residual liquid, put the bean seedling leaves back to the culture cup, continuously culture for 4 days and check the result. One of the plants was immersed in a solution containing no sample to be tested and the remaining additives were identical to the sample solution as a blank control. Each compound was replicated three times.

In the case of `Fc1cccc(F)c1C1=NC(c2ccc(COCC(F)(F)F)cc2)CO1` (stereo not drawn) [Compound R2-5], in assay [1], the mortality at 0.001 µg/mL amounted to 47%, the mortality at 0.01 µg/mL was 70%, the mortality at 0.1 µg/mL was found to be 90% and the mortality at 0.5 µg/mL is 90%. For the same compound, in assay [1], the mortality at 1 µg/mL was 97%, the mortality at 10 µg/mL was 100%, the mortality at 100 µg/mL is 100% and the mortality at 200 µg/mL was determined as 100%. In addition, the “activity on mite eggs, times that of etoxazole” value in assay [1] (relative to etoxazole) is 105 times. In assay [2], the “acaricidal activity compared with etoxazole” value was “higher acaricidal activity than etoxazole”, the mortality at 0.001 µg/mL is 37%, the mortality at 0.01 µg/mL worked out at 65% and the mortality at 0.1 µg/mL came out at 90%. For the same compound, in assay [2], the mortality at 0.5 µg/mL came out at 90%, the mortality at 1 µg/mL is 95%, the mortality at 10 µg/mL came out at 100% and the mortality at 100 µg/mL came out at 100%. The mortality at 200 µg/mL in assay [2] stood at 100%. The “larvicidal activity, times that of etoxazole” value in assay [2] (relative to etoxazole) came to 27 times.
For the compound `C=C(C)COCc1ccc(C2COC(c3c(F)cccc3F)=N2)cc1` (stereo not drawn) [Compound R2-6], in assay [1], the mortality at 0.001 µg/mL stood at 30%, the mortality at 0.01 µg/mL turned out to be 60%, the mortality at 0.1 µg/mL came out at 95% and the mortality at 0.5 µg/mL amounted to 86%. Also, in assay [1], the mortality at 1 µg/mL is 100%, the mortality at 10 µg/mL came to 100%, the mortality at 100 µg/mL was found to be 100% and the mortality at 200 µg/mL was 100%. Besides, in assay [2], the “acaricidal activity compared with etoxazole” value is on record as “higher acaricidal activity than etoxazole”, the mortality at 0.001 µg/mL amounted to 21%, the mortality at 0.01 µg/mL stood at 45% and the mortality at 0.1 µg/mL is 80%. Besides, in assay [2], the mortality at 0.5 µg/mL worked out at 80%, the mortality at 1 µg/mL was determined as 90%, the mortality at 10 µg/mL was 100% and the mortality at 100 µg/mL was 100%. Also, in assay [2], the mortality at 200 µg/mL was 100%.
Consider `C#CCCOCc1ccc(C2COC(c3c(F)cccc3F)=N2)cc1` (stereo not drawn) [Compound R2-7], for which, in assay [1], the mortality at 0.1 µg/mL was found to be 70%, the mortality at 1 µg/mL was found to be 90%, the mortality at 10 µg/mL worked out at 95% and the mortality at 100 µg/mL is 100%. Moreover, the mortality at 200 µg/mL in assay [1] is 100%. In assay [2], the mortality at 0.1 µg/mL worked out at 40%, the mortality at 1 µg/mL is 75%, the mortality at 10 µg/mL is 90% and the mortality at 100 µg/mL was 100%. In assay [2], the mortality at 200 µg/mL was found to be 100%.
Turning to `Fc1cccc(F)c1C1=NC(c2ccc(COCC#Cc3ccccc3)cc2)CO1` (stereo not drawn) [Compound R2-8], in assay [1], the mortality at 0.1 µg/mL was found to be 60%, the mortality at 1 µg/mL was 80%, the mortality at 10 µg/mL amounted to 90% and the mortality at 100 µg/mL turned out to be 100%. For the same compound, the mortality at 200 µg/mL in assay [1] stood at 100%. For the same compound, in assay [2], the mortality at 0.1 µg/mL worked out at 50%, the mortality at 1 µg/mL turned out to be 80%, the mortality at 10 µg/mL is 92% and the mortality at 100 µg/mL turned out to be 100%. For the same compound, the mortality at 200 µg/mL in assay [2] came out at 100%.
Take `Fc1cccc(F)c1C1=NC(c2ccc(COCC3CCCO3)cc2)CO1` (stereo not drawn) [Compound R2-9]: in assay [1], the mortality at 1 µg/mL was 55%, the mortality at 10 µg/mL is 85%, the mortality at 100 µg/mL came to 100% and the mortality at 200 µg/mL was found to be 100%. In assay [2], the mortality at 1 µg/mL amounted to 30%, the mortality at 10 µg/mL was 75%, the mortality at 100 µg/mL was 95% and the mortality at 200 µg/mL amounted to 100%.
Turning to `Fc1cccc(F)c1C1=NC(c2ccc(COCc3ccco3)cc2)CO1` (stereo not drawn) [Compound R2-10], in assay [1], the mortality at 10 µg/mL is 75%, the mortality at 100 µg/mL is 100% and the mortality at 200 µg/mL amounted to 100%. In assay [2], the mortality at 10 µg/mL worked out at 62%, the mortality at 100 µg/mL is 80% and the mortality at 200 µg/mL turned out to be 95%.
With `Fc1cccc(F)c1C1=NC(c2ccc(COCc3cccs3)cc2)CO1` (stereo not drawn) [Compound R2-11], in assay [1], the mortality at 1 µg/mL was determined as 75%, the mortality at 10 µg/mL is 90%, the mortality at 100 µg/mL was 100% and the mortality at 200 µg/mL came to 100%. In assay [2], the mortality at 1 µg/mL is 70%, the mortality at 10 µg/mL is 80%, the mortality at 100 µg/mL was 100% and the mortality at 200 µg/mL is 100%.
On to `Fc1cccc(F)c1C1=NC(c2ccc(COc3ccccn3)cc2)CO1` (stereo not drawn) [Compound R2-12], for which, in assay [1], the mortality at 1 µg/mL is 65%, the mortality at 10 µg/mL turned out to be 90%, the mortality at 100 µg/mL came to 100% and the mortality at 200 µg/mL came out at 100%. Also, in assay [2], the mortality at 1 µg/mL worked out at 50%, the mortality at 10 µg/mL worked out at 95%, the mortality at 100 µg/mL is 100% and the mortality at 200 µg/mL came out at 100%.
Regarding `Fc1cccc(F)c1C1=NC(c2ccc(COc3cccnc3)cc2)CO1` (stereo not drawn) [Compound R2-13], in assay [1], the mortality at 0.1 µg/mL was found to be 70%, the mortality at 1 µg/mL was 80%, the mortality at 10 µg/mL was found to be 85% and the mortality at 100 µg/mL worked out at 100%. In addition, the mortality at 200 µg/mL in assay [1] is 100%. Also, in assay [2], the mortality at 1 µg/mL was determined as 60%, the mortality at 10 µg/mL was 95%, the mortality at 100 µg/mL came out at 100% and the mortality at 200 µg/mL came out at 100%.
On to `Fc1cccc(F)c1C1=NC(c2ccc(COc3ccncc3)cc2)CO1` (stereo not drawn) [Compound R2-14], for which, in assay [1], the mortality at 10 µg/mL was determined as 50%, the mortality at 100 µg/mL was 100% and the mortality at 200 µg/mL worked out at 100%. Besides, in assay [2], the mortality at 100 µg/mL is 65% and the mortality at 200 µg/mL turned out to be 90%.
On to `Fc1cccnc1OCc1ccc(C2COC(c3c(F)cccc3F)=N2)cc1` (stereo not drawn) [Compound R2-15], for which, in assay [1], the mortality at 10 µg/mL turned out to be 70%, the mortality at 100 µg/mL is 100% and the mortality at 200 µg/mL stood at 100%. For the same compound, in assay [2], the mortality at 10 µg/mL was determined as 60%, the mortality at 100 µg/mL was 80% and the mortality at 200 µg/mL came out at 100%.
On to `Fc1cccc(F)c1C1=NC(c2ccc(COc3ccncn3)cc2)CO1` (stereo not drawn) [Compound R2-16], for which, in assay [1], the mortality at 10 µg/mL was found to be 50%, the mortality at 100 µg/mL stood at 100% and the mortality at 200 µg/mL came out at 100%. Also, in assay [2], the mortality at 100 µg/mL was 50% and the mortality at 200 µg/mL came out at 88%.
Consider `Fc1cccc(F)c1C1=NC(c2ccc(COc3ncccn3)cc2)CO1` (stereo not drawn) [Compound R2-17], for which, in assay [1], the mortality at 10 µg/mL amounted to 70%, the mortality at 100 µg/mL came to 100% and the mortality at 200 µg/mL is 100%. Further, in assay [2], the mortality at 100 µg/mL was 60% and the mortality at 200 µg/mL is 90%.
For `Fc1ccc(OCc2ccc(C3COC(c4c(F)cccc4F)=N3)cc2)cc1` (stereo not drawn) [Compound R2-18], in assay [1], the mortality at 0.1 µg/mL is 85%, the mortality at 1 µg/mL is 90%, the mortality at 10 µg/mL came to 96% and the mortality at 100 µg/mL was 100%. The mortality at 200 µg/mL in assay [1] worked out at 100%. Moreover, in assay [2], the mortality at 0.1 µg/mL worked out at 70%, the mortality at 1 µg/mL was found to be 80%, the mortality at 10 µg/mL came to 88% and the mortality at 100 µg/mL stood at 100%. For the same compound, the mortality at 200 µg/mL in assay [2] amounted to 100%.
